Data: PubChem BioAssay (NCI)
In brackets after ≈: the same amount, converted by molar mass. Several values for one entry are separate records, joined by “and”; a condition that tells them apart may be missing. Equal values may be shown once.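 Assay format: 96-well plates, 48-hour exposure. GI50 marks 50% less growth. TGI is the concentration that stops growth completely.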

Assays:
Experiment in all cases: NCI tumour cell line growth inhibition, 48 h
RXF-631 renal = tested on: RXF-631 renal
SN12K1 renal = tested on: SN12K1 renal
P388 leukemia = tested on: P388 leukemia
P388/ADR leukemia = tested on: P388/ADR leukemia

Cc1cc(=O)n2c3c(c4c(cc13)c(CO)cc(=O)n4C)OC2
TGI (RXF-631 renal): 38.9 µM

COC(C(=O)C(O)C(C)O)C1Cc2cc3cc(OC4CC(OC5CC(O)C(O)C(C)O5)C(O)C(C)O4)c(C)c(O)c3c(O)c2C(=O)C1OC1CC(OC2CC(O)C(OC3CC(C)(O)C(O)C(C)O3)C(C)O2)C(O)C(C)O1 (configuration not stated)
GI50 (SN12K1 renal): 0.0304 ng/mL (≈ 0.028 nM) | TGI (SN12K1 renal): 150 ng/mL | GI50 (P388 leukemia): 0.056 ng/mL (≈ 0.0516 nM) | TGI (P388 leukemia): 0.798 ng/mL (≈ 0.735 nM) | GI50 (P388/ADR leukemia): 1.32 ng/mL (≈ 1.22 nM) | TGI (P388/ADR leukemia): 20.4 ng/mL (≈ 18.8 nM)

C[C@]12CCC[C@H](O)[C@H]1C[C@H](CO)CC2
TGI (RXF-631 renal): > 100 µM

CC1(c2cccc(N)c2)C2C(=O)NC(=O)C1C(=O)NC2=O (configuration not stated)
TGI (RXF-631 renal): > 100 µM

C/C=C(/CCC1NCCC2c3ccccc3NC12)[Si](C)(C)C (configuration not stated)
TGI (RXF-631 renal): 23.4 µM

Cn1c(=O)c2ccc(-c3ccc(Br)cc3)nc2n(C)c1=O
TGI (RXF-631 renal): > 100 µM

C/C(=N\NC(=S)N1CCN(C2CCCCCC2)CC1)c1ccccn1
TGI (SN12K1 renal): 1.56 µM

NC(=O)c1ncn(CCN2CCN(C(=O)NCCCCCCNC(=O)N3CCN(CCn4cnc(C(N)=O)c4N)CC3)CC2)c1N
TGI (RXF-631 renal): > 100 µM

C=C1COC(O)(C2OCOC(C3CC(=O)NC(=O)C3)C2O)C1C (configuration not stated)
TGI (RXF-631 renal): 0.0249 µM and 0.0329 µM

CSc1nc2c(nc(N)n2C2OC(COC(C)=O)C(OC(C)=O)C(OC(C)=O)C2OC(C)=O)c(=O)n1C (configuration not stated)
TGI (RXF-631 renal): > 100 µM

COC(=O)C1=CC2CC1C(S(=O)(=O)c1ccccc1)C2S(=O)(=O)c1ccccc1 (configuration not stated)
TGI (RXF-631 renal): 26.9 µM

CN(C)CCC(CCN(C)C)=NOC(=O)c1ccccc1
TGI (RXF-631 renal): > 100 µM
